Data: BindingDB's records for doi:10.1074/jbc.M413155200 (Vertex Pharmaceuticals, 2005)

Target: Serine/threonine-protein kinase pim-1 (Homo sapiens, UniProt P11309)
Test: Kinase Assay
Conditions: pH 7.6; 30 °C

Serine/threonine-protein kinase pim-1, sequence (P11309 whole entry): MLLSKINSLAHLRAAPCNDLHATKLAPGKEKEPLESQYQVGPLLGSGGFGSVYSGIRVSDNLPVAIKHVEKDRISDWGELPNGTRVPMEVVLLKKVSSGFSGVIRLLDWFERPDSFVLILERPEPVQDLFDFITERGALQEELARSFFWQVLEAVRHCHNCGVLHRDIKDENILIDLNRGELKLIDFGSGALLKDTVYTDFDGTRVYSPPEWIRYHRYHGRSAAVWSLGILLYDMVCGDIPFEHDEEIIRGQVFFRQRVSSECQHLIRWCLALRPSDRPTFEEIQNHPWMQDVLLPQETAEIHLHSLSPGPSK

In the case of `COC(=O)[C@@]1(O)C[C@H]2O[C@]1(C)n1c3ccccc3c3c4c(c5c6ccccc6n2c5c31)C(=O)NC4`, the IC50 is reported as 150 nM.
